Legend:
[1] = test system: VSMCs; assay: ATP increase in VSMCs, 24 hours (luminescence); format: cell-based; conditions: 10 μM
Description: This study was performed to determine if vitamin K2 (MK-7) affects ATP generation. ATP is generated via glycolysis in the cytoplasm and via both the Krebs-cycle and oxidative phosphorylation in the mitochondria. ATP generation via glycolysis delivers only 2 ATP, whereas ATP generation in the mitochondria generates some 32 ATP.
(§1) To perform this study, VSCMs (5000 cells/well) were plated in 96-well plates and left to adhere overnight. Next, cells were incubated for 24 hours with either vehicle, vitamin K2 (MK-7) (10 μM), or UQ10 (10 μM). Hoechst was added to correct for cell number (1 μg/mL). Next, ATP was measured using mammalian lysis buffer for 5 minutes after which 50 μL ATP substrate solution was added to the wells and incubated for 10 minutes in a dark environment. Finally, the medium was transferred to a white plate to measure luminescence

[2] = test system: VSMCs; assay: Hypoxia-induced ATP decrease, co-treatment with CoCl2 (luminescence); format: cell-based; conditions: co-treatment CoCl2 100 μM and 10 μM test substance, 24 hours
Description: This study was performed to investigate whether vitamin K2 (MK-7) can prevent the hypoxia-induced decrease in ATP (CoCl2 treatment, thereby stabilization of HIF1a). To perform this study, VSMCs were co-treated with CoCl2 and vitamin K2 (MK-7).
as §1, with “First,” for “To perform this study,”, “CoCl2 (100 μM) or CoCl2 and” for “vehicle,”, “(MK-7)” for “(MK-7) (10 μM),”, “together (100 and 10 μM, respectively). Next, ATP was measured and corrected for cell numbers. CoCl2 values were set as relative to CoCl2 co-treated with vitamin K2 (MK-7) or UQ10.” for “(10 μM).”, “Finally,” for “Finally, the”, “luminescence.” for “luminescence”

`CC(C)=CCC/C(C)=C/CC/C(C)=C/CC/C(C)=C/CC/C(C)=C/CC/C(C)=C/CC/C(C)=C/CC1=C(C)C(=O)c2ccccc2C1=O` [vitamin K2 (MK-7)] was tested, and the “ATP production compared to the vehicle” value [1] was “increased ATP production in VSMCs significantly (p=0.014)” and the “hypoxia-induced decrease in ATP generation” value [2] was “could (partially) prevent the decreased ATP generation”.
